The supplement of paper PMC13380429
± gives the standard deviation of the averaged measurements.

How the values were obtained:
Settings in all cases: 72 h
Caco-2 [1] = assay: cell viability relative to DMSO; higher = less toxic
Calu-3 [2] = assay: as above
U2OS [3] = assay: as above
Vero E6 [4] = assay: as above
HepG2 [5] = assay: as above
Caco-2 [6] = assay: relative viability EC50 (midpoint between 100% and the lowest measured viability); higher = less toxic
Calu-3 [7] = assay: as above
U2OS [8] = assay: as above
Vero E6 [9] = assay: as above
HepG2 [10] = assay: as above
Caco-2 [11] = assay: drug sensitivity score (DSS) for viability; higher = more toxic; extreme values may be limits of the assay
Calu-3 [12] = assay: as above
U2OS [13] = assay: as above
Vero E6 [14] = assay: as above
HepG2 [15] = assay: as above

Compound	cell viability (Caco-2 [1]; 1 nM) [%]	cell viability (Caco-2 [1]; 10 nM) [%]	cell viability (Caco-2 [1]; 100 nM) [%]	cell viability (Caco-2 [1]; 1000 nM) [%]	cell viability (Caco-2 [1]; 10000 nM) [%]	cell viability (Calu-3 [2]; 1 nM) [%]	cell viability (Calu-3 [2]; 10 nM) [%]	cell viability (Calu-3 [2]; 100 nM) [%]	cell viability (Calu-3 [2]; 1000 nM) [%]	cell viability (Calu-3 [2]; 10000 nM) [%]	cell viability (U2OS [3]; 1 nM) [%]	cell viability (U2OS [3]; 10 nM) [%]	cell viability (U2OS [3]; 100 nM) [%]	cell viability (U2OS [3]; 1000 nM) [%]	cell viability (U2OS [3]; 10000 nM) [%]	cell viability (Vero E6 [4]; 1 nM) [%]	cell viability (Vero E6 [4]; 10 nM) [%]	cell viability (Vero E6 [4]; 100 nM) [%]	cell viability (Vero E6 [4]; 1000 nM) [%]	cell viability (Vero E6 [4]; 10000 nM) [%]	cell viability (HepG2 [5]; 1 nM) [%]	cell viability (HepG2 [5]; 10 nM) [%]	cell viability (HepG2 [5]; 100 nM) [%]	cell viability (HepG2 [5]; 1000 nM) [%]	cell viability (HepG2 [5]; 10000 nM) [%]	relative viability EC50 (Caco-2 [6]) [µM]	relative viability EC50 (Calu-3 [7]) [µM]	relative viability EC50 (U2OS [8]) [µM]	relative viability EC50 (Vero E6 [9]) [µM]	relative viability EC50 (HepG2 [10]) [µM]	drug sensitivity score (Caco-2 [11])	drug sensitivity score (Calu-3 [12])	drug sensitivity score (U2OS [13])	drug sensitivity score (Vero E6 [14])	drug sensitivity score (HepG2 [15])
O=C(O)CCc1c(C(=O)O)[nH]c2cc(Cl)cc(Cl)c12	92.8	104	90.9	102	99.4	91.6	96.3	93.2	97.5	106	96.2	103	95.9	99.7	97.5	99.9	102	102	94.3	102	102	92.5	94.2	107	105	> 10	> 10	> 10	> 10	> 10	0	0	0	0	0
CCCCCCCCCCCCCC[C@@H](O)[C@@H](O)[C@@H](N)CO [phytosphingosine]	115	102	87.3	113	99.5	103	101	98.6	82.3	103	101	100	98.9	102	98.3	98.7	98.2	95.9	111	95.2	91	92.7	112	100	97.9	> 10	> 10	> 10	> 10	> 10	0	0	0	0	0
CC(C)n1nnc2cc(C(=O)O)ccc21 [IBC-293]	102	98	101	106	95.2	94.9	91	100	101	103	102	96	98.3	97.6	98.6	96.6	98.5	102	104	99.5	93.2	105	91	106	102	> 10	> 10	> 10	> 10	> 10	0	0	0	0	0
O=c1c(O)c(-c2ccc(O)c(O)c2)oc2cc(O)cc(O)c12 [quercetin]	104	93.6	100	87.6	79.5	98.8	100	92.4	92.8	80.5	99.1	97	98	97	96.1	99.3	99	95.9	101	99.3	94.1	95.8	99.2	99.1	84	> 10	> 10	> 10	> 10	> 10	1.9	0.8	0	0	0.4
CCOc1cc(C(=O)N2CCC(N3CCN(C)CC3)CC2)ccc1Nc1ncc2c(n1)N(C1CCCC1)c1ccccc1C(=O)N2C [XMD17-109]	96.1	104	99	81.6	32	104	87.2	99	99	4.4	99.6	95.6	101	89.5	28.4	94.3	97.1	94.4	62.1	8.8	101	105	94.2	76.9	25.2	1.48	3.09	2.01	1.21	1.45	6.5	5.5	5.7	9.5	7.2
O=C(O)CCCC[C@@H]1SC[C@@H]2NC(=O)N[C@@H]21 [biotin]	95.8	96.3	101	95.1	89.3	93.8	105	98	102	97.6	99.2	101	97.7	101	97.8	106	66.8	105	59.3	106	111	101	108	97.4	104	> 10	> 10	> 10	> 10	> 10	0.1	0	0	0	0
C[C@H]1NC(=O)NC1=O [5-methylhydantoin-(D)]	97.5 ± 3.3	94.4 ± 0.14	104 ± 2.3	95.3 ± 5.5	101 ± 2.6	95.5 ± 5.9	99.6 ± 5	94.5 ± 3.2	102 ± 3	101 ± 6.9	97.85 ± 0.49	100 ± 5	98.8 ± 5.1	98.2 ± 2.3	100 ± 2.4	97.1 ± 7.1	102 ± 4.5	96.4 ± 0.71	99.4 ± 0.57	100 ± 8	93 ± 4.9	100 ± 0.64	93.3 ± 5.9	98.1 ± 8.6	106 ± 2.8	> 10	> 10	> 10	> 10	> 10	0	0	0	0	0
Cn1c(=O)cc(N2CCC[C@@H](N)C2)n(Cc2cc(F)ccc2C#N)c1=O [trelagliptin]	101	98.9	92.3	104	95.6	98.9	110	105	102	107	104	95.6	96.6	95.1	106	102	98.4	99.2	103	98.2	96.7	99.1	88.3	96.5	88.8	> 10	> 10	> 10	> 10	> 10	0	0	0	0	0
Oc1noc2c1CCNC2 [gaboxadol]	92.6	99	91.6	104	95.3	99.7	91.4	103	103	99.4	102	100	94.3	98.3	94.2	96.6	95.8	96.2	94.6	106	105	101	88.2	101	98.1	> 10	> 10	> 10	> 10	> 10	0	0	0	0	0
N=C(N)SCc1ccc(B(O)O)cc1 [BC-11]	102	101	96.1	108	92.4	92.3	101	105	107	99.6	102	102	98.8	97.1	97.1	108	96.6	97.9	101	99.8	107	99.7	99.8	88.6	92.8	> 10	> 10	> 10	> 10	> 10	0	0	0	0	0.4
Oc1c(Br)cc(Br)c2cccnc12 [broxyquinoline]	89.4	92.5	93.2	98.9	112	108	82.2	90.7	97.6	99	96	98.7	101	98.2	94.6	102	94.1	102	110	99	84.2	108	110	100	87.6	> 10	> 10	> 10	> 10	> 10	0	0	0	0	0
COc1cc2c(cc1OC)CN(CCc1ccc(NC(=O)c3cccc4c(=O)c5cccc(OC)c5[nH]c34)cc1)CC2 [elacridar]	97.3	91.6	92.2	95.5	88.3	98.9	94.3	99.6	101	89	96.5	99.3	99.2	100	99.8	97	94.8	98.7	93.5	103	99.6	107	101	96.6	97.9	> 10	> 10	> 10	> 10	> 10	0	0	0	0	0
NC(=O)OCC(O)COc1ccc(Cl)cc1 (stereo not given) [chlorphensin-carbamate]	100	109	92	117	93.3	92.6	96.3	91.6	85.5	94.2	99.6	99	96.3	98.2	94.3	110	95.5	105	96.5	103	91.7	97	100	100	100	> 10	> 10	> 10	> 10	> 10	0	0	0	0	0
O.O=[Si]=O.O=[Si]=O.O=[Si]=O.O=[Si]=O.[O]=[Mg].[O]=[Mg].[O]=[Mg] [Talc]	97.2	102	94.7	101	90	87	98.1	89.8	107	81.3	96.7	98.3	95.9	100	95.3	95.7	104	103	97	103	106	95.1	106	95.4	96.7	> 10	> 10	> 10	> 10	> 10	0	0.2	0	0	0
